Laboratory results taken from patent US20240270821A1, “GIP/GLP1/GCG TRI-RECEPTOR AGONISTS AND USES THEREOF” (priority 2023, published 2024).
Starred links: 1 amine or outer side, 2 acyl side, 3 side chain; linkers in the order of their positions; H or OH if unused. Non-standard residues stand in square brackets, D forms with d. Residues, ends and D or L forms follow the SMILES beside them. Groups on a side chain read outwards from the residue. *: point of attachment. C18 diacid = O=C(O)CCCCCCCCCCCCCCCCC(=O)*; αMePhe(2-F) = C[C@](N)(Cc1ccccc1F)C(=O)O; γGlu = O=C(O)[C@H](CCC(=O)[*:2])N[*:1]; αMeS = C[C@](N)(CO)C(=O)O; AEEA = NCCOCCOCC(=O)O; Aib = CC(C)(N)C(=O)O

Key:
Type in all cases: cell-based
hGIPR [1] = biological target: T1, hGIPR (Homo sapiens, UniProt P48546); assay: Functional cAMP activity in the presence of 1% HSA; settings: read-out: cAMP Rel EC50, hGIPR
T1 sequence (P48546 22-466): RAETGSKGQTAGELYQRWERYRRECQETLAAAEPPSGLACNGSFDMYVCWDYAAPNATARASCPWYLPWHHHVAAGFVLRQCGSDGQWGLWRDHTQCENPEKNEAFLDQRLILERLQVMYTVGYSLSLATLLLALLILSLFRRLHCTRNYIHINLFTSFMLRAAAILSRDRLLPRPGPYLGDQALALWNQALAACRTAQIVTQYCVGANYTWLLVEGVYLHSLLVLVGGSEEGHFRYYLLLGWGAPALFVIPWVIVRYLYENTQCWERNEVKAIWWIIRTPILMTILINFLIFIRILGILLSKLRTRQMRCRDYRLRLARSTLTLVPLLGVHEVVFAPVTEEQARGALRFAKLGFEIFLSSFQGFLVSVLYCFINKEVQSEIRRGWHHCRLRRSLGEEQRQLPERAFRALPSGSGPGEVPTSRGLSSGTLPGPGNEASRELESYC

human GcgR = human GcgR (Homo sapiens, UniProt P47871); assay: Functional cAMP activity in the presence of 1% HSA; settings: read-out: cAMP Rel EC50, hGcgR
hGcgR = hGcgR (Homo sapiens, UniProt P47871); assay: Functional cAMP activation in the presence of 0.1% casein (no HSA); settings: read-out: Relative cAMP EC50, hGcgR;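 also: intracellular cAMP rise after 30 min at 37 °C, read by HTRF against a cAMP standard curve, scaled from buffer only (0%) to maximal control ligand response (100%)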
hGLP-1R [2] = biological target: T2, hGLP-1R (Homo sapiens, UniProt P43220); assay: as above; settings: read-out: Relative cAMP EC50, hGLP-1R;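 also: intracellular cAMP rise after 30 min at 37 °C read by HTRF, normalized between buffer only (0%) and maximal control ligand (100%), four-parameter variable-slope fit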
hGLP-1R [3] = biological target: T2, hGLP-1R; assay: Functional cAMP activity in the presence of 1% HSA; settings: read-out: cAMP Rel EC50, hGLP-1R
hGIPR [4] = biological target: T1, hGIPR; assay: Functional cAMP activation in the presence of 0.1% casein (no HSA); settings: read-out: Relative cAMP EC50, hGIPR;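 as to Relative cAMP EC50, hGIPR: intracellular cAMP rise after 30 min at 37 °C read by HTRF against a standard curve, scaled between buffer alone (0%) and top control ligand concentration (100%), four-parameter fit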;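 as to Relative cAMP EC50, hGLP-1R: intracellular cAMP rise after 30 min at 37 °C read by HTRF, normalized between buffer only (0%) and maximal control ligand (100%), four-parameter variable-slope fit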

T2 sequence (P43220 24-463): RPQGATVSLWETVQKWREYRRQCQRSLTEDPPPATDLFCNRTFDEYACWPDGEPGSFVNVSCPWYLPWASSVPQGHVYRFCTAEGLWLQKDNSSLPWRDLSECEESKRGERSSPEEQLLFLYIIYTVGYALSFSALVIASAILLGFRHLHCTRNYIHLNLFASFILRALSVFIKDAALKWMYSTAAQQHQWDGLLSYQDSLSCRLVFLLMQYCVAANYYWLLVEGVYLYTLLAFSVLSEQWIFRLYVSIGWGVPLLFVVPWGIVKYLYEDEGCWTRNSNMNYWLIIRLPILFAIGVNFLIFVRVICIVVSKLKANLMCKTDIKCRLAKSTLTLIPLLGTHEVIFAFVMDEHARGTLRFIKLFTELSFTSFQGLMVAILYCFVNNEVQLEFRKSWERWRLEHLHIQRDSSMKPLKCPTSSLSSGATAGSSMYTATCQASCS
Sequence of hGcgR (P47871 26-477): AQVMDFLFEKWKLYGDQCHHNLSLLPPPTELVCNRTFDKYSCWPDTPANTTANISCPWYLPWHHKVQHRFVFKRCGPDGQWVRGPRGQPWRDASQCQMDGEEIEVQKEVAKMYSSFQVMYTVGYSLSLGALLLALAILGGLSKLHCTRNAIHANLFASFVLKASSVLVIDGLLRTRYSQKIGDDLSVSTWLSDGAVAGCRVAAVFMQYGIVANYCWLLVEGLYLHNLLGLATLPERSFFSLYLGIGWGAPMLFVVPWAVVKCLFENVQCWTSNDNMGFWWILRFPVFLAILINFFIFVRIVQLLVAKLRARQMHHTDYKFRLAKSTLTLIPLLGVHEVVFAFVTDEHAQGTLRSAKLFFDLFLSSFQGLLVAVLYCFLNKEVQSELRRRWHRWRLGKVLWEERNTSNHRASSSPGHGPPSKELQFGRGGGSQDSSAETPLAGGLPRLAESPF
Sequence of human GcgR (P47871 26-477): as above

Compound	EC50 (hGIPR [1]) [nM]	EC50 (human GcgR) [nM]	EC50 (hGcgR) [nM]	EC50 (hGLP-1R [2]) [nM]	EC50 (hGLP-1R [3]) [nM]	EC50 (hGIPR [4]) [nM]
CC[C@H](C)[C@H](NC(=O)[C@H](Cc1ccccc1)NC(=O)[C@H](C)NC(=O)C(C)(C)NC(=O)[C@H](CCC(N)=O)NC(=O)[C@H](C)NC(=O)[C@H](CCCCNC(=O)COCCOCCNC(=O)COCCOCCNC(=O)CC[C@H](NC(=O)CCCCCCCCCCCCCCCCC(=O)O)C(=O)O)NC(=O)[C@H](CCCCN)NC(=O)[C@H](CC(=O)O)NC(=O)[C@H](CC(C)C)NC(=O)[C@H](CC(C)C)NC(=O)[C@@H](NC(=O)[C@](C)(CO)NC(=O)[C@H](Cc1ccc(O)cc1)NC(=O)[C@H](CC(=O)O)NC(=O)[C@H](CO)NC(=O)[C@@H](NC(=O)[C@](C)(Cc1ccccc1F)NC(=O)[C@@H](NC(=O)CNC(=O)[C@H](CCC(N)=O)NC(=O)C(C)(C)NC(=O)[C@@H](N)Cc1ccc(O)cc1)[C@@H](C)O)[C@@H](C)O)[C@@H](C)CC)C(=O)N[C@@H](CCC(=O)O)C(=O)N[C@@H](Cc1ccc(O)cc1)C(=O)N[C@@H](CC(C)C)C(=O)N[C@@H](CCC(=O)O)C(=O)N[C@@H](CCC(=O)O)C(=O)NCC(=O)NCC(=O)N1CCC[C@H]1C(=O)N[C@@H](CO)C(=O)N[C@@H](CO)C(=O)NCC(=O)N[C@@H](C)C(=O)N1CCC[C@H]1C(=O)N1CCC[C@H]1C(=O)N1CCC[C@H]1C(=O)N[C@@H](CCC(=O)O)C(N)=O [Example 468] (H-Y[Aib]QGT[αMePhe(2-F)]TSDY[αMeS]ILLDKK([AEEA-AEEA-γGlu-C18 diacid])AQ[Aib]AFIEYLEEGGPSSGAPPPE-NH2)	4.76	195	1.95	0.466	30.7	0.0222
CC[C@H](C)[C@H](NC(=O)[C@H](Cc1ccccc1)NC(=O)[C@H](C)NC(=O)C(C)(C)NC(=O)[C@H](CCC(N)=O)NC(=O)[C@H](C)NC(=O)[C@H](CCCCNC(=O)COCCOCCNC(=O)COCCOCCNC(=O)CC[C@H](NC(=O)CCCCCCCCCCCCCCCCC(=O)O)C(=O)O)NC(=O)[C@H](CCCCN)NC(=O)[C@H](CC(=O)O)NC(=O)[C@H](CC(C)C)NC(=O)[C@H](CC(C)C)NC(=O)[C@@H](NC(=O)[C@](C)(CO)NC(=O)[C@H](Cc1ccc(O)cc1)NC(=O)[C@H](CC(=O)O)NC(=O)[C@H](CO)NC(=O)[C@@H](NC(=O)[C@](C)(Cc1ccccc1F)NC(=O)[C@@H](NC(=O)CNC(=O)[C@H](CCC(N)=O)NC(=O)C(C)(C)NC(=O)[C@@H](N)Cc1ccc(O)cc1)[C@@H](C)O)[C@@H](C)O)[C@@H](C)CC)C(=O)N[C@@H](CCC(=O)O)C(=O)N[C@@H](Cc1ccc(O)cc1)C(=O)N[C@@H](CC(C)C)C(=O)N[C@@H](CCC(=O)O)C(=O)N[C@@H](CCC(=O)O)C(=O)NCC(=O)NCC(=O)N1CCC[C@H]1C(=O)N[C@@H](CO)C(=O)N[C@@H](CO)C(=O)NCC(=O)N[C@@H](CCC(=O)O)C(=O)N1CCC[C@H]1C(=O)N1CCC[C@H]1C(=O)N1CCC[C@H]1C(=O)N[C@@H](CCC(=O)O)C(N)=O [Example 469] (H-Y[Aib]QGT[αMePhe(2-F)]TSDY[αMeS]ILLDKK([AEEA-AEEA-γGlu-C18 diacid])AQ[Aib]AFIEYLEEGGPSSGEPPPE-NH2)	4.24	155	1.34	0.562	61.7	0.031
